Source: article PMC5555576, “Selective small-chemical inhibitors of protein arginine methyltransferase 5 with anti-lung cancer activity” (PLoS ONE, 2017)
pIC50: −log10 of the molar value.

What was measured:
A549 cells [1] = experiment: Cell growth by cell counting, A549; assay type: cell-based; conditions: for A549 cell growth inhibition: various concentrations and time points
Description: Lung cancer A549 (ATCC) and PC14 (ATCC) cells were cultured in minimum essential medium (Cellgro) with 10% (v/v) fetal bovine serum (FBS) (HyClone), 2% vitamins, 1% L-glutamine, 1% non-essential amino acids and 1% sodium pyruvate. For the treatment with identified compounds, cells (2, 000 cells/well) were seeded in 24-well plates in the medium containing 2% FBS. The fresh medium containing identified compounds was added 24 hours later. Cells were cultured for various times in a CO2 incubator and the cell numbers were counted. Each experiment was performed in triplicate.
A, Lung cancer A549 cells were cultured in the presence of various concentrations (μM) of identified compounds and growth inhibition was determined by cell counting at various time points. B, Lung cancer PC14 cells were cultured in the presence of DMSO or various concentrations of identified compounds and growth inhibition was determined by cell counting 2 days post the compound treatment. C, The serum concentrations of compound C9 after oral administration. Mice were sacrificed and blood samples were collected immediately before (0 h) and at 2, 4, 6 and 8h after compound administration.
Fig 8 The C9 analogue has improved PRMT5-inhibitory efficacy and oral drug availability. A, The chemical structure of the C9 analogue. B, Compound C9a inhibited methylation of SmD3 by PRMT5. The recombinant SmD3 (2 μg) was used as the substrate in the absence (lane 5) or presence of 1, 10 or 100 μM compounds as indicated. […] C, C9a has improved efficacy to inhibit lung cancer growth. A549 cells were cultured in the presence of various concentrations of C9 or C9a and growth inhibition was determined by cell counting 2 days post the compound treatment. […] Male BALB/c mice were randomized and administrated C9a by oral gavage and compound concentrations in blood samples were determined.

A549 cells [2] = experiment: BrdU incorporation assay; assay type: cell-based; conditions: 20 μM, 2 days
Description: A549 cells were infected with the lentivirus expressing NT or PRMT5 shRNA. A549 cells were grown in the presence of DMSO or compound C5, C9 or C11 (20 μM) for 2 days. A, Bromodeoxyuridine (BrdU) (BD Biosciences) incorporation assay. Cells were plated on a Chamber slide (BD falcon) and cultured in the presence of 10 μM BrdU for 4 h. The BrdU-positive cells (brown) were detected by immunostaining with the monoclonal anti-BrdU antibody (BD Biosciences) and observed under a microscope. B, Percentage of BrdU-positive cells in control, PRMT5-silencing or compound treated cells. The results represent the means of three independent experiments ± the standard deviation. ***, P<0.001. (TIF) Click here for additional data file.

A549 cells [3] = experiment: Cell cycle distribution by flow cytometry; assay type: cell-based; conditions: 20 μM, 2 days
Description: Supplementary file pone.0181601.s002.tif: S2 Fig Identified compounds arrested cell cycle at the G1 phase. A549 cells were infected with the lentivirus expressing non-target (NT) or PRMT5 shRNA as described previously by us. A549 cells were grown in the presence of DMSO or 20 μM of the compound C5, C9 or C11 for 2 days. A, PRMT5 protein levels in A549 cells. Whole cell lysates were prepared and submitted for Western blot analysis with anti-PRMT5 (top) or anti-actin (bottom) antibody. B, Cell cycle distributions. Cells were harvested, washed with phosphate-buffered saline (PBS) and fixed in 70% ethanol at 4 °C overnight. Cells were collected and stained with propidium iodide (PI). The cell-cycle distributions were determined by flow cytometry analysis (BD Accuri^TM C6 Flow Cyometer). (TIF) Click here for additional data file.

A549 cells [4] = experiment: Cellular permeability and stability by HPLC of cell extracts; assay type: in vitro ADME; conditions: for decrease of concentration inside the cells: 20 μM for 2 h, within 10 h after removal; for concentration inside cells compared with the medium: 2 h; for cell permeability: 2 hr in medium with compound
Description: Waters 2695 HPLC System and a C18 column (Symmetry, 3.6 x 75 mm) were used. The column was equilibrated with 10% acetonitrile and eluated with a linear gradient from 10% acetonitrile to 100% acetonitrile in 60 min. Compounds were dissolved in 10% acetonitrile and the purchased compounds (ChemBridge) were used as the standards.
We then determined whether the identified compounds are cell-permeable. Lung cancer A549 cells were cultured in medium containing various concentrations of the respective compound for 2 hr. Cells were harvested and washed with PBS. The compounds were extracted with ethyl acetate from cells and analyzed by HPLC with a C18 column using the purchased compound as the standard. Compounds C2, C5, C9 and C11 are cell-permeable (Fig 6A), which is consistent with their tPSAs <140 angstroms square (Table 1). […] We even noticed that the compound C5 crystalized inside the cells.
A, The cellular permeability of identified compounds. Lung cancer A549 cells were cultured in the presence of various concentrations of compounds for 2h and the compound concentrations in the cell were determined by HPLC chromatography with a C18 column. B, The cellular stability of identified compounds. Lung cancer A549 cells were cultured in the presence of compounds (20 μM) for 2 h and then the medium was removed. Cells were washed with the medium and cultured for additional 5 or 10 h after the compounds were removed. The compound concentrations in the cell were determined by HPLC chromatography with a C18 column. […] A549 cells were grown in the presence of DMSO or compound C5, C9 or C11 (20 μM). Histones were purified and analyzed by SDS-PAGE stained with Commassie blue (lanes 1–4, bottom) or by Western blot with anti-symmetric dimethyl arginine antibody (SYM10) (lanes 1–4, top). B-Raf was immunoprecipitated with anti-B-Raf antibody from whole cell lysates and submitted for Western blot analysis with anti-B-Raf (lanes 5 and 6, bottom) or anti-symmetric dimethyl arginine (lanes 5 and 6, top) antibody.

decrease of concentration inside the cells (A549 cells [4]) | concentration inside cells compared with the medium (A549 cells [4]) | cell permeability (A549 cells [4]) | SMILES | A549 cell growth inhibition (A549 cells [1]) | cellular proliferation (BrdU) (A549 cells [2]) | cell cycle effect (A549 cells [3]) | pIC50 (A549 cells [1]; Homo sapiens, A549 cells) | accumulation inside cells (A549 cells [4]) [fold] | inhibition of growth of lung cancer cells compared to C9 (A549 cells [1]; A549 cells, 2 days)
about 2 folds | higher than those in the medium | cell-permeable | CCn1c(=O)[nH]c2cc(C(=O)Nc3ccc(OC)cc3)ccc2c1=O [Compound C5] | inhibited A549 cell growth in a dosage- and time-dependent manner at sub μM concentrations | inhibited proliferation of lung cancer cells | arrested the cell cycle at the G1 phase |  |  | 
 |  |  | Nc1cccc(Nc2ncnc3c2cnn3Cc2ccccc2)c1 [Compound C9a] |  |  |  |  |  | higher efficacy
about 2 folds | higher than those in the medium | cell-permeable | Cn1cc(C(c2ccc(O)c(O)c2O)c2cn(C)c3ccccc23)c2ccccc21 [Compound C11] | inhibited A549 cell growth in a dosage- and time-dependent manner at sub μM concentrations | inhibited proliferation of lung cancer cells | arrested the cell cycle at the G1 phase |  |  | 

SMILES | decrease of concentration inside the cells (A549 cells [4]) | concentration inside cells compared with the medium (A549 cells [4]) | cell permeability (A549 cells [4]) | A549 cell growth inhibition (A549 cells [1]) | cellular proliferation (BrdU) (A549 cells [2]) | cell cycle effect (A549 cells [3]) | pIC50 (A549 cells [1]; Homo sapiens, A549 cells) | accumulation inside cells (A549 cells [4]) [fold] | inhibition of growth of lung cancer cells compared to C9 (A549 cells [1]; A549 cells, 2 days)
COc1ccc(Nc2ncnc3c2cnn3Cc2ccc(C)cc2)cc1 [Compound C9] | about 2 folds | higher than those in the medium | cell-permeable | inhibited A549 cell growth in a dosage- and time-dependent manner at sub μM concentrations | inhibited proliferation of lung cancer cells | arrested the cell cycle at the G1 phase | ~6.00 | 5 | 
